*: point of attachment. MethylRed = CN(C)c1ccc(/N=N/c2ccccc2C(=O)*)cc1; FAM = 5(6)-carboxyfluorescein; peptoid = not defined here; Ahx = NCCCCCC(=O)O

1 substance from PMC4864350, “Fluorogenic Substrates for In Situ Monitoring of Caspase-3 Activity in Live Cells” (PLoS ONE, 2016) can be followed below.

The test system of one assay is HEK293T cells. The experiment in a line: Live-cell confocal imaging of caspase-3 activation. To be noted: 27 at 10 μM. The assay is classed as cell-based. The protocol: (§1) Fig 5 Confocal microscopy images of HEK293T and MCF-7 cells treated with substrate 27. Confocal microscopy images (objective HCX PL APO ×63/1.40–0.6 Oil CS) of HEK273T cells with substrate 27 (10 μM) without staurosporine (STS) (A) and with staurosporine (1 μM) (B) induced apoptosis (green fluorescence is from fluorescein “turned on” by caspase-3 cleavage of the substrate, blue is DAPI nuclear stain). (C) Staurosporine treated MCF-7 cells with substrate 27.
(§2) Cell culture was performed in a Heracell 150 incubator (Heraeus) and in a Herasafe KS 18 class II negative-flow cabinet (Heraeus). […] Fluorescence was evaluated as mean fluorescence intensity (MFI) and estimated <100 u.a. for untreated control cells (consistent values independently of staurosporine addition). Apoptotic cells treated with substrate 1 were used as a positive control to obtain the maximum of fluorescence signal. […] The data were analysed using the software Flowjo® 7.5.
(§3) For confocal microscopy, the cells were fixed with 4% paraformaldehyde in PBS and the nuclei stained with Hoechst-33342 (1% w/v in PBS). Cellular fluorescence of cells was analysed using an Inverted Leica DM IRB with filter I3 (450–490 nm) and a Leica SP5 Confocal (FITC and DAPI channel).

For another assay, the target named is T1, caspase-3 (Homo sapiens, UniProt P42574).
T1 construct: purchased R&D systems, USA
T1 sequence (P42574 29-175 limits assumed): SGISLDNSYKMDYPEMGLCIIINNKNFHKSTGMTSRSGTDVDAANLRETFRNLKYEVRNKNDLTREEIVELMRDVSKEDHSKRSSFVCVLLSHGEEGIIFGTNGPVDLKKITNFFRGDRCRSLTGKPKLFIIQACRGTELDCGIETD
T1 sequence (P42574 176-277 limits assumed): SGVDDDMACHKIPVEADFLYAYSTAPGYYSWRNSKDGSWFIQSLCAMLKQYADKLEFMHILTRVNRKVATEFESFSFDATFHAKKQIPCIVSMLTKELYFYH
The experiment in a line: Kinetic assay of fluorogenic substrates with caspase-3. Type of assay: biochemical. To be noted: substrate range 0.1–8 μM, enzyme 20 nM (1–9) or 15 nM (10–14), n = 3. Here is the method:
The ability of […] (bearing MR as the quencher of choice) to act as s substrate for caspase-3, as well as caspase-7, was investigated by determining the catalytic efficiency (kcat/KM) for each substrate with both enzymes (Table 2).
Caspase-3 or caspase-7 (R&D systems, USA) was added to 100 μL of caspase assay buffer with substrates 1–14 at concentrations from 0.1 μM to 8 μM in a 96-well plate (n = 3) to give final enzyme concentration of 20 nM (1–9) or 15 nM (10–14). Fluorescence (λEx/Em 485/528 nm) was recorded on a Biotek Synergy HT Multi-Mode Microplate Reader every 2 min. Control samples had the same composition but no enzyme. The rate (μM/min) was calibrated using a 5(6)-carboxyfluorescein conversion factor (0.0055 μM/RFU) and data plotted against time (min). For initial cleavage rate (0–5 min), plots were fitted using linear regression analysis and the Michaelis-Menten data generated using GraphPad Prism 5.

The subject of another assay is MCF-7 cells. The assay can be described thus: Confocal imaging of staurosporine-treated cells lacking functional caspase-3. Type of assay: cell-based. To be noted: cells lack functional caspase-3 but express caspase-7. Here is the method: as §1, §2, §3

Usually Km stands for the concentration of substrate that gives half-maximal velocity. Take “substrate 27: FAM-Ahx-Asp-Leu-Pro-Asp-Lys(MR)-Ahx, conjugated to the cell penetrating peptoid at the C-terminus ({FAM-Ahx}-DLPDK(MethylRed)-{Ahx-peptoid}; reading uncertain; also: printed as FAM-Ahx-Asp-Leu-Pro-Asp-Lys(MR)-Ahx)”: the “fluorescence turn-on in apoptotic cells (confocal)” value in the assay on HEK293T cells (staurosporine 1 μM) was “only detected in the cytoplasm of apoptotic HEK293T cells”. For the same substance, the “fluorescence in non-apoptotic cells (confocal)” value in the assay on HEK293T cells (without staurosporine) is “no increase in fluorescence observed”. In the assay with caspase-3 (fluorescence λEx/Em 485/528 nm, initial rate 0–5 min, Michaelis-Menten), the Km worked out at 1.1 ± 0.3 µM. Moreover, the “Kcat, Caspase-3” value with caspase-3 is 0.035 ± 0.013 s⁻¹. The “fluorescence turn-on in apoptotic MCF-7 cells (confocal)” value in the assay with MCF-7 cells was “No fluorescence “turn-on” was observed”.
